# Reference: US11918770B2, “Implants for localized drug delivery and methods of use thereof” (The Regents of the University of California, priority 2014, dated 2024)
# Entries after “also recorded” stand apart in the source; their conditions may differ.
# How the values were obtained:
# [1] = test system: progesterone receptor (PgR) mRNA; assay: Progesterone receptor mRNA by qRT-PCR in MCF7 cells treated with medium containing released E2; type: cell-based; details: estradiol released from Silastic tubing into culture medium, MCF7 cells treated 24 hours
# Protocol: The effect of estradiol released from Silastic® tubing loaded with estradiol and placed in culture medium was monitored, using conditions similar to that described in Example 2.
# FIG. 23: Drug (E2) was loaded into 3 independent silastic tubes, dried, and sealed before incubating them in tissue culture medium for the indicated number of days. The tubes were then removed and MCF7 cells were treated with the medium. For the E2 experiment, MCF7 cells were first depleted of E2 by growing for 48 hours in FBS stripped media. Then, after 24 hours of treatment with media containing released E2, cells were harvested and progesterone receptor mRNA was quantified by quantitative real-time (qRT)-polymerase chain reaction (PCR) using TaqMan® probes from Applied Biosystems. As controls, MCF7 cells untreated and treated directly with 10 nM E2 were run.
# [2] = distribution coefficient between water and octanol; cited from earlier work
# [3] = Drug release from loaded Silastic tubing in culture media (LC-MS/MS); type: physicochemical; details: for drug transfer from Silastic tubing: Silastic tubing depot approach
# Protocol: (§1) Each sealed (10 cm) tube was immersed into a 10 cm culture tube containing 5 mL culture media (Dulbecco's Modified Eagle's medium (DMEM)+10% fetal bovine serum (FBS)+penicillin and streptomycin) approximating interstitial tissue surrounding the breast tissue. These tubes were set on a rocker in an incubator at 37° C. for 1, 2, 5, 10, 15, 21 and 30 days. After each time point media was collected and stored at −80° C. for further analysis for western blotting, viability/proliferation assay by MTS (3-(4,5-dimethylthiazol-2-yl)-5-(3-carboxymethoxyphenyl)-2-(4-sulfophenyl)-2H-tetrazolium) and quantitation by liquid chromatography-tandem mass spectrometry (LC-MS/MS). Additional iteration was to perform repeated washes on the same sealed tube and collect the culture medium at days 1, 2, 5, 10, 15, 21, and 30.
# (§2) A validated LC-MS/MS method was used for quantitation of fulvestrant. Sample was prepared by liquid-liquid extraction procedures with n-hexane-isopropanol (90:10, v/v). Extracts were concentrated (using a nitrogen stream at room temperature) and […] with 2 volumes of mobile phase buffer, and injected into a Sciex ultra performance liquid chromatorgraphy (UPLC) coupled with a Sciex API 5000™ triple quadrupole mass spectrometer. Data was acquired and analyzed by Analyst® MS software.
# Media was harvested semi-weekly (84 hrs).
# [4] = test system: MCF7 ER-positive breast cancer cells; assay: MTS viability/proliferation assay of MCF7 cells; type: cell-based
# Protocol: as §1
# (§3) MCF-7 culture were propagated and seeded in 6 cm dishes at 300,000 cells per dish and allowed to adhere overnight as a monolayer. […] The drug concentrations and biological effects of the drug eluted from specific tubes were evaluated by Mass spectroscopy, Western Blot analysis and antiproliferative methods after exposure for 3 days.
# At the end of the exposure, medium was replaced by MTS dye diluted (200 μL per well) in culture medium and incubated for up to 2 hours at 37° C. Optical density (490 nm) at the end of the time points (1, 1.5 and 2 hours) was measure and plotted as a ratio of absorbance (day/untreated).
# Media containing tubing released drug at respective times was then added to cultured MCF7 ER-positive breast cancer cells and grown for 72 hours.
# (§4) The medium was then used to culture MCF7 cells for 72 h, and the cells were assayed for proliferation by MTS assay (Panel A) and harvested for protein and western blotted for ER and PR expression (Panel B).
# [5] = Drug release from loaded Silastic tubing in saline (LC-MS/MS); type: physicochemical
# Protocol: Every 84 hours the saline was collected and replaced with fresh saline.
# as §2
# Every 84 hours, saline was collected and replaced with fresh saline. Fulvestrant was quantified in collected saline by liquid chromatography mass spectrometry.
# estrogen receptor (ER) = target: T1, estrogen receptor (ER) (Homo sapiens, UniProt P03372); assay: Western blot for ER and PR expression in MCF7 cells; type: cell-based
# T1 sequence (P03372 1-595): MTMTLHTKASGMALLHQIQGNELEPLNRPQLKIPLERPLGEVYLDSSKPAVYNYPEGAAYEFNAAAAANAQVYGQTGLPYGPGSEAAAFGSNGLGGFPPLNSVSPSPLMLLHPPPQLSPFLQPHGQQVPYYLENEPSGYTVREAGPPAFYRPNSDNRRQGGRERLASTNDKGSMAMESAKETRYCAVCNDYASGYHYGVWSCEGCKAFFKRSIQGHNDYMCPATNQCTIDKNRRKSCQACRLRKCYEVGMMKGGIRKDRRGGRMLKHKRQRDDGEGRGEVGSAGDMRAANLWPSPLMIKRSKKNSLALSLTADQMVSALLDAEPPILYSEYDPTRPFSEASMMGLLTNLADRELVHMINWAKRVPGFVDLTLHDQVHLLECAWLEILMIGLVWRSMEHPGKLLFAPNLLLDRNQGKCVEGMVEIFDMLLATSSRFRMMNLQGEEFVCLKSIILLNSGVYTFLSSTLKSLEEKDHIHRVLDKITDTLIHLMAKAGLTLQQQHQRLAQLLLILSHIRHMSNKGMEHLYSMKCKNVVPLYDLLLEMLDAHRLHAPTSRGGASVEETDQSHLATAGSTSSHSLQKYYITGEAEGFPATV
# Protocol: as §1, §3, §4
# [6] = Visual examination of organs for overt pathology in implanted mice; type: in vivo, CD-1 female mice; details: Silastic depot with dry fulvestrant implanted subcutaneously, 9 week period
# Source text: (§5) Mice were monitored for body weight loss, activity, adequate grooming, and general behavior daily for the first week, followed by alternate days up to […]. Mice were euthanized and blood and organs were collected after 1, 2, 3, 4, 6 and 9 weeks (FIGS. 21 and 22).
# [7] = Fulvestrant level in blood and mammary tissue of mice with Silastic implant; type: in vivo, CD-1 female mice; details: 2 cm RX50 silastic tubing, 0.076 mg/cm dry fulvestrant, adjacent to inguinal mammary fat pad
# Protocol: as §5
# Blood from anaesthetized CD-1 female mice were collected in Vacutainer® tubes coated with K2 ethylenediaminetetraacetic acid (EDTA) via cardiac puncture. Plasma was separated by centrifugation at 6,000×g for 10 minutes and stored at −80° C. […] Harvested tissue was homogenized in saline on ice and then subjected to liquid-liquid phase extraction and evaluated for their levels of fulvestrant by LC-MS/MS as described above.
# After the indicated number of weeks the mice were euthanized and tissue was harvested.
# [8] = in 10% ethanol, 10% benzyl alcohol, 15% benzyl benzoate, and to 100% with castor oil (Faslodex®); cited from earlier work
# [9] = MCF7 cells treated directly with 100 nM fulvestrant (positive control)
molecule,measurement,setting,value
C[C@]12CC[C@@H]3c4ccc(O)cc4CC[C@H]3[C@@H]1CC[C@@H]2O [estradiol],duration of sustained increase in progesterone receptor (PgR) mRNA expression,[1],up to 15 days
O=C(c1ccc(OCCN2CCCCC2)cc1)c1c(-c2ccc(O)cc2)sc2cc(O)ccc12 [raloxifene],log D,[2],around 5.406
same,drug transfer from Silastic tubing,[3],amenable to drug transfer
C[C@]12CC[C@@H]3c4ccc(O)cc4C[C@@H](CCCCCCCCC[S+]([O-])CCCC(F)(F)C(F)(F)F)[C@H]3[C@@H]1CC[C@@H]2O (stereo partly shown) [fulvestrant],cell growth,[4]; [9],arrest cell growth
same,tube equilibration time sufficient for growth inhibition and ER down regulation comparable to 100 nM fulvestrant,"[4]; Silastic tubing 9 cm, 0.076 mg/cm dry fulvestrant, in culture media",2 to 5 days
same,antiproliferative effects,"[4]; fulvestrant added directly, concentration curves 10-50 nM and up to 10 μM, 72 hours",sufficient to block estrogen receptor signaling and proliferation
same,growth inhibition and estrogen receptor down regulation,"[4]; medium with fulvestrant released from Silastic tubing (0.076 mg/cm dry fulvestrant), MCF7 cells 72 h",comparable to cells directly treated with fulvestrant (100 nM); also recorded: sufficient to abrogate ER signaling and reduce cell proliferation
same,log D,[2],around 8.47
same,extrapolated duration of release,[5]; based on rate of release and amount of fulvestrant in the device,exceeds 10 years
same,duration of steady release,"[5]; saline, 37 C",exceeding 7 months
same,rate of fulvestrant released,"[5]; saline, 37 C, after 5 weeks, average",7.77 ng/cm tubing*day
same,ER expression,estrogen receptor (ER); [9],sufficient to down regulate ER expression
same,"duration of consistent weekly fulvestrant release, as measured by ER and PR down regulation","estrogen receptor (ER); weekly release from Silastic tubing, cell culture models",more than 4 weeks
same,duration of sustained release into culture medium,"[3]; fulvestrant loaded Silastic tubing, media harvested semi-weekly (84 hrs), LC-MS/MS",up to 22 weeks
same,"overt pathology of organs (color, size, general condition)",[6],none
same,fulvestrant in mammary tissue,[7]; all mice,significant fulvestrant was detectable
same,fulvestrant in blood,"[7]; weeks 1-9, all but one mouse at week 4",< 4 nM
same,solubility,[8],up to 50 mg/mL
4-hydroxytamoxifen,drug transfer from Silastic tubing,[3],amenable to drug transfer
